In patent publication US5696112A, “Fused heterocyclic azepines as vasopressin antagonists” (American Cyanamid Company, priority 1995, dated 1997):

How the values were obtained:
[1] = biological target: T1, Rat Kidney Medullary V2 Receptors (vasopressin V2) (Rattus norvegicus, UniProt Q00788); test: Binding Assay to Rat Kidney Medullary V2 Receptors; details: rat kidney medullary V2, [3H]Arg8-vasopressin
T1 construct: Medullary tissues from rat kidneys are dissected out; from tissue; host or cells: rat kidney medulla membranes
Experimental: Binding Assay to Rat Kidney Medullary V2 Receptors
Medullary tissues from rat kidneys are dissected out, cut into small pieces and let soak in a […] sodium chloride solution containing 1.0 mM EDTA with many changes of the liquid phase, until the solution is clear of blood. The tissue is homogenized in a 0.25M sucrose solution containing 1.0 mM EDTA and 0.1 mM PMSF using a Potter-Elvehjem homogenizer with a teflon pestle. The homogenate is filtered through several layers (4 layers) of cheese cloth. The filtrate is rehomogenized using a dounce homogenizer, with a tight fitting pestle. The final homogenate is contrifuged at 1500×g for 15 min. The nuclear pellet is discarded and the supernatant fluid recentrifuged at 40,000×g for 30 min. The resulting pellet formed contains a dark inner part with the exterior, slightly pink. The pink outer part is suspended in a small amount of 50.0 mMTris.HCl buffer, pH 7.4. The protein content is determined by the Lowry's method (Lowry et al, J. Biol. Chem., 1953). The membrane suspension is stored at -70° C., in 50.0 mMTris.HCl, containing 0.2% inactivated BSA and 0.1 mM PMSF in aliquots of 1.0 ml containing 10.0 mg protein per ml of suspension until use in subsequent binding experiments.
For binding experiments, the following is added in μl volume to wells of a 96 well format of a microtiter plate: 100.0 μl of 100.0 mM Tris.HCl buffer containing 0.2% heat inactivated BSA, 10.0 mM MgCl2 and a mixture of protease inhibitors: leupeptin, 1.0 mg %; aprotinin, 1.0 mg %; 1,10-phenanthroline, 2.0 mg %; trypsin inhibitor, 10.0 mg % and 0.1 mM PMSF, 20.0 μl of [^3 H]Arginine^8, vasopressin (S.A. 75.0 Ci/mmole) at 0.8 nM and the reaction initiated by the addition of 80.0 μl of tissue membranes (200.0 μg tissue protein). The plates are left undisturbed on the bench top for 120 min. to reach equilibrium. Non-specific binding is assessed in the presence of 1.0 μM of unlabeled ligand, added in 20 μl volume. For test compounds, these are solubilized in 50% dimethylsulfoxide (DMSO) and added in 20.0 μl volume to a final incubation volume of 200 μl. Upon completion of binding, the content of each well is filtered off, using a Brandel® cell Harvester (Gaithersburg, Md.). The radioactivity trapped on the filter disk by the ligand-receptor complex is assessed by liquid scintillation counting in a Packard LS Counter, with an efficiency of 65% for tritium. The data are analyzed for IC50 values by the LUNDON-2 program for competition (LUNDON SOFTWARE, OH).

[2] = biological target: T2, Vasopressin V1 Receptor Subtype in Human Platelet Membranes (Homo sapiens, UniProt P37288); test: Binding to V1 Receptor Subtype in Human Platelet membranes
T2 construct: tissue Hudson Valley Blood Services, Westchester Medical Center, Valhalla, N.Y; host or cells: human platelet membranes from frozen platelet rich plasma
Experimental: Radioligand Binding Experiments with Human Platelet Membranes
Platelet Source: Hudson Valley Blood Services, Westchester Medical Center, Valhalla, N.Y.
Platelet Membrane Preparation:
Frozen platelet rich plasma (PRP), received from the Hudson Valley Blood Services are thawed to room temperature. The tubes containing the PRP are centrifuged at 16,000×g for 10 min. at 4° C. and the supernatant fluid discarded. The platelets resuspended in an equal volume of 50.0 mMTris.HCl, pH 7.5 containing 120 mM NaCl and 20.0 mM EDTA. The suspension is recentrifuged at 16,000×g for 10 min. This washing step is repeated one more time. The wash is discarded and the lysed pellets homogenized in low ionic strength buffer of Tris.HCl, 5.0 mM, pH 7.5 containing 5.0 mM EDTA. The homogenate is centrifuged at 39,000×g for 10 min. The resulting pellet is resuspended in Tris.HCl buffer, 70.0 mM, pH 7.5 and recentrifuged at 39,000×g for 10 min. The final pellet is resuspended in 50.0 mM Tris.HCl buffer pH 7.4 containing 120 mM NaCl and 5.0 mM HCl to give 1.0-2.0 mg protein per ml of suspension.
Binding to Vasopressin V1 Receptor Subtype in Human Platelet Membranes:
In wells of a 96 well format microtiter plate, add 100 μl of 50.0 mM Tris.HCl buffer containing 0.2% BSA and a mixture of protease inhibitors (aprotinin, leupeptin etc.). Then add 20 μl of [^3 H]Ligand: (Manning or Arg^8 Vasopressin), to give final concentrations ranging from 0.01 to 10.0 nM. Initiate the binding by adding 80.0 μl of platelet suspension (approx. 100 μg protein). Mix all reagents by pipetting the mixture up and down a few times. Non-specific binding is measured in the presence of 1.0 μM of unlabeled ligand (Manning or Arg^8 Vasopressin). Let the mixture stand undisturbed at room temperature for ninety (90) min. Upon this time, rapidly filter off the incubate under vacuum suction over GF/B filters, using a Brandel® Harvester. Determine the radioactivity caught on the filter disks by the addition of liquid scintillant and counting in a liquid scintillator

oxytocin receptors = biological target: T3, oxytocin receptors (Rattus norvegicus, UniProt P70536); test: Oxytocin Receptor Binding; parameters: species or system Sprague-Dawley rats; details: 10 μM
T3 construct: The uteri are dissected out, cleaned of fat and connective tissues; from tissue; host or cells: uterus membranes of DES-treated female Sprague-Dawley rats
T3 sequence (P70536 1-388): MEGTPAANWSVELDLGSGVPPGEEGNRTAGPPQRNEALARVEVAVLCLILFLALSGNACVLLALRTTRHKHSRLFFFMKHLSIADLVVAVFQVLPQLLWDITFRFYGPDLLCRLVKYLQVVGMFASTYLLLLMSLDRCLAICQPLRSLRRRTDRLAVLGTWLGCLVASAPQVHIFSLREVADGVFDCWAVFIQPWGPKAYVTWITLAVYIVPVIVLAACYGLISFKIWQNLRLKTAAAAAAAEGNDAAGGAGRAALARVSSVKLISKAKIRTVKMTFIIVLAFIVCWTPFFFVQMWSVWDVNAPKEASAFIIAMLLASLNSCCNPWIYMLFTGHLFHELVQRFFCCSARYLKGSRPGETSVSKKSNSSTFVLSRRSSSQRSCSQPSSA
Experimental: Oxytocin Receptor Binding
Female Sprague-Dawley rats weighing approximately 200-250 g are injected intramuscularly (i.m.) with 0.3 mg/kg of body weight of diethylstilbestrol (DES). The rats are sacrificed 18 hours later under pentobarbital anesthesia. The uteri are dissected out, cleaned of fat and connective tissues and rinsed in 50 ml of normal saline. The tissue pooled from six rats is homogenized in 50 ml of 0.01 mMTris.HCl, containing 0.5 mM dithiothreitol and 1.0 mM EDTA, adjusted to pH 7.4, using a polytron at setting 6 with three passes of 10 sec each. The homogenate is passed through two (2) layers of cheesecloth and the filtrate centrifuged at 1000×g for 10 min. The clear supernatant is removed and recentrifuged at 165,000×g for 30 min. The resulting pellet containing the oxytocin receptors is resuspended in 50.0 mM Tris.HCl containing 5.0 mM MgCl2 at pH 7.4, to give a protein concentration of 2.5 mg/ml of tissue suspension. This preparation is used in subsequent binding assays with [^3 H]Oxytocin.
Binding of 3,5-[^3 H]Oxytocin ([^3 H]OT) to its receptors is done in microtiter plates using [^3 H]OT, at various concentrations, in an assay buffer of 50.0 mM Tris.HCl, pH 7.4 and containing 5.0 mM MgCl2, and a mixture of protease inhibitors: BSA, 0.1 mg; aprotinin, 1.0 mg; 1,10-phenanthroline, 2.0 mg; […], 10.0 mg; and PMSF, 0.3 mg per 100 ml of buffer solution. Nonspecific binding is determined in the presence of 1.0 uM unlabeled OT. The binding reaction is terminated after 60 min., at 22° C., by rapid filtration through glass fiber filters using a Brandel® cell harvester (Biomedical Research and Development Laboratories, Inc., Gaithersburg, Md.). Competition experiments are conducted at equilibrium using 1.0 nM [^3 H]OT and varying the concentration of the displacing agents. The concentrations of agent displacing 50% of [^3 H]OT at its sites (IC50) are calculated by a computer assisted LUNDON-2 program (LUNDON SOFTWARE INC., Ohio, USA).

T1 sequence (Q00788 whole entry): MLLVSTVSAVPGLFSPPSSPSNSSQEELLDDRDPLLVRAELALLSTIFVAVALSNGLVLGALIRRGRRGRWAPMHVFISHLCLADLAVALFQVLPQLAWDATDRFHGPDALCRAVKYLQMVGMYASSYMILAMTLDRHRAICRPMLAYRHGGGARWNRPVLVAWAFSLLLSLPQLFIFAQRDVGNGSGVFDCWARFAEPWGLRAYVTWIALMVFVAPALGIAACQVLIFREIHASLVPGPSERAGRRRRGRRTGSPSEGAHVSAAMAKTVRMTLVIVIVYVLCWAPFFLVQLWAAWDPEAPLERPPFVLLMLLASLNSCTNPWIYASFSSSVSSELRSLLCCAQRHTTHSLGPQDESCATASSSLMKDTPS
T2 sequence (P37288 whole entry): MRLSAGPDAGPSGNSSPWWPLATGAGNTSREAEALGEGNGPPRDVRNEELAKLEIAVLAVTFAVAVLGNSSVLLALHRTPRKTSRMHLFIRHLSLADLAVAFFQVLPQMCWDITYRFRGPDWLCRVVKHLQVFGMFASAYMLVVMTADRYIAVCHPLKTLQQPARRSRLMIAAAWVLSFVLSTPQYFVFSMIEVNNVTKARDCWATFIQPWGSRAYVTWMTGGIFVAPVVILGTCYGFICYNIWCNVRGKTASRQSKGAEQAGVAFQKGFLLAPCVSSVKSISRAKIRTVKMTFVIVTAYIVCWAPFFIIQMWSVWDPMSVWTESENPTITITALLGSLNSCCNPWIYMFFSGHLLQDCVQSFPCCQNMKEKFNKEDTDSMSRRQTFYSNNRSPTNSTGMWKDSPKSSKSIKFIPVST

- IC50 [1]: 0.03 µM
- IC50 [2]: 1.3 µM
- inhibition at 10 µM (oxytocin receptors): 76%
Compound: Cc1ccc(F)cc1C(=O)Nc1ccc(C(=O)N2CCC=Cc3sccc32)c(Cl)c1 [Example 184, N-[4-[(5,6-Dihydro-4H-thieno[3,2-b]azepin-4-yl)carbonyl]-3-chlorophenyl]-5-fluoro-2-methylbenzamide]
